{"source": "patent US12545936B2", "about": "“Expression and secretion of UV absorbent material from transformed bacteria” (University of Cincinnati, priority 2021, dated 2026)", "test_system": "human skin tissues", "test": "UV irradiation of human skin explants, cleaved caspase-3 immunohistochemical staining", "format": "cell-based", "experimental": "MAAs extracted from the engineered bacteria of the present invention were evaluated. Human skin was obtained from discarded tissue from elective procedures. The skin tissue was cleaned, trimmed, sterilized and plated in an organ culture medium overnight at 33° C. MAA extract or appropriate controls were applied on skin tissues, after which they were exposed to 135 mJ/cm2 UV-A and UV-B light. The application of live bacteria on human skin tissue was subsequently tested. Different treatments viz. overnight culture of wild type EcN, 10% zinc oxide solution, or overnight culture of EcN expressing shinorine were applied on human skin explants. Treatments were allowed to equilibrate with skin tissue for 1 hour, after which tissues were exposed to UV radiation. The tissues were then incubated for different durations and subsequently fixed. Cleaved caspase-3 immunohistochemical staining was performed to check for DNA damage. Slides were imaged using Leica Slide Scanner and representative images were captured. The captured images were quantified using ImageJ with a modified, previously published protocol (Crowe and Yue, 2019).", "note": "“Also recorded” adds a separate entry of the source.", "data": [{"smiles": "COC1=C(NCC(=O)O)C[C@@](O)(CO)C/C1=N\\[C@@H](CO)C(=O)O", "note": "[shinorine]", "values": [{"measurement": "preventing and/or reducing UV-induced DNA damage compared to untreated group", "setting": "MAA extract applied on human skin tissue, 135 mJ/cm2 UV-A and UV-B, three days post exposure, cleaved caspase-3 IHC", "value": "significantly effective"}, {"measurement": "efficacy vs. 10% zinc oxide against UV-induced DNA damage", "setting": "human skin tissue, 72 h post UV irradiation, comparator 10% ZnO, FIG. 7", "value": "significant efficacy; also recorded: significantly more effective"}]}]}
